The record followed here is ChEMBL document CHEMBL2057180, “Triterpenes from Alisma orientalis act as farnesoid X receptor agonists” (Bioorg Med Chem Lett, 2012).

Data set [1] concerns HepG2. Nature of the data set: Cytotoxicity against human HepG2 cells. It is filed as cell-based.
Data set [2] concerns the target T1, Bile acid receptor (Homo sapiens) (UniProt Q96RI1).
T1 sequence (whole entry): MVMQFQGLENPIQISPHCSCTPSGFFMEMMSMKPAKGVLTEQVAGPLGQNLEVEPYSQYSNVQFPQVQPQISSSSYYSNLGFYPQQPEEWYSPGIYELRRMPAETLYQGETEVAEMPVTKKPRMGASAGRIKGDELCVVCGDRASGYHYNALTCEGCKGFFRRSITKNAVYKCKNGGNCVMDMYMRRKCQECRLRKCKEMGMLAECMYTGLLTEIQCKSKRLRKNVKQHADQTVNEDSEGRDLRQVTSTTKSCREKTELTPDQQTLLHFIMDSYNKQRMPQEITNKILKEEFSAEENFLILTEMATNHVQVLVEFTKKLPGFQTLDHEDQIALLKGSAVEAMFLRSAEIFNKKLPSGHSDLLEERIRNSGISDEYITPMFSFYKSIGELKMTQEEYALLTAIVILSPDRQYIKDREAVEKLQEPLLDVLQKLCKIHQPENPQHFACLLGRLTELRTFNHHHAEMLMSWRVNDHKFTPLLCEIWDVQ
Put plainly: Agonist activity at FXR LBD expressed in human HepG2 cells co-expressing GAL4 DBD and pG5-luc assessed as luciferase activity at 1 uM after 48 hrs by transient transfection reporter assay relative to control. In kind it is functional, cell-based. In general terms: A reporter such as luciferase makes a cellular process visible.

For data set [3], the target named is T1, Bile acid receptor (Homo sapiens). Put plainly: Agonist activity at FXR LBD expressed in human HepG2 cells co-expressing GAL4 DBD and pG5-luc assessed as luciferase activity at 100 nM after 48 hrs by transient transfection reporter assay relative to control. In kind it is functional, cell-based.
The target is the same in data set [4]. Put plainly: Agonist activity at FXR LBD expressed in human HepG2 cells co-expressing GAL4 DBD and pG5-luc assessed as SHP promoter-driven luciferase activity at 1 uM after 48 hrs by transient transfection reporter assay relative to control. In kind it is functional, cell-based.
The target is the same in data set [5]. Nature of the data set: Agonist activity at FXR LBD expressed in human HepG2 cells co-expressing GAL4 DBD and pG5-luc assessed as SHP promoter-driven luciferase activity at 100 nM after 48 hrs by transient transfection reporter assay relative to control. It is filed as functional, cell-based.
Data set [6] shares this target. Put plainly: Agonist activity at FXR LBD expressed in human HepG2 cells co-expressing GAL4 DBD and pG5-luc assessed as transrepression of rat CYP7A1 promoter-driven luciferase activity at 100 nM after 48 hrs by transient transfection reporter assay relative to control. In kind it is functional, cell-based.
Data set [7] has the same target. Put plainly: Agonist activity at FXR LBD expressed in human HepG2 cells co-expressing GAL4 DBD and pG5-luc assessed as transrepression of rat CYP7A1 promoter-driven luciferase activity after 48 hrs by transient transfection reporter assay relative to control. In kind it is functional, cell-based.
Data set [8] has the same target. Put plainly: Agonist activity at FXR LBD expressed in human HepG2 cells co-expressing GAL4 DBD and pG5-luc assessed as PLTP promoter-driven luciferase activity at 100 nM after 48 hrs by transient transfection reporter assay relative to control. It is filed as functional, cell-based.
Data set [9] has the same target. Nature of the data set: Agonist activity at FXR LBD expressed in human HepG2 cells co-expressing GAL4 DBD and pG5-luc assessed as PLTP promoter-driven luciferase activity after 48 hrs by transient transfection reporter assay relative to control. It is filed as functional, cell-based.

Active and inactive are the calls of the source. The calls are words filed in the database; no cut-off is given here.

Turning to `C[C@H](C[C@H](O)[C@H]1OC1(C)C)C1=C2C[C@H](O)[C@H]3[C@@]4(C)CCC(=O)C(C)(C)[C@@H]4CC[C@]3(C)[C@@]2(C)CC1` [ALISOL B], the Activity entry in [1] is “Toxic”.
As to `CC(=O)O[C@@H](C[C@@H](C)C1=C2[C@H](O)[C@H](O)[C@H]3[C@@]4(C)CCC(=O)C(C)(C)[C@@H]4CC[C@]3(C)[C@@]2(C)CC1=O)[C@H]1OC1(C)C`, the Activity result in data set [1] was “Non-toxic”; in [6], 85%; in [7], “Dose-dependent effect”; in data set [9] it was “Dose-dependent effect”. Further, the results for the Ratio in data set [2] and in data set [4] were 2 and 1.6, respectively. The result in [3], in data set [5] and in [8] was inactive.
As to `CC(=O)O[C@@H](C[C@@H](C)C1=C2C[C@H](O)[C@H]3[C@@]4(C)CCC(=O)C(C)(C)[C@@H]4CC[C@]3(C)[C@@]2(C)CC1)[C@@H](O)C(C)(C)O`, the Activity entry in data set [1] is “Non-toxic”; in data set [7], “Dose-dependent effect”; in [9] it was “Dose-dependent effect”. In addition, the Ratio in [2] came to 2; in data set [4], 1.6. Besides, the outcome in [3], in data set [5], in data set [6] and in [8] was inactive.
